Test results from patent US12441689B2 (EpiVario, Inc., priority 2019, dated 2025).

Biological target: human ACSS2 protein (Homo sapiens (Human), UniProt Q9NR19)
Test: ACSS2 Cell-Free Activity Assay (Cell-Free IC50)
Details: 10 nM human ACSS2 protein, 90 minutes at 37 C, pyrophosphatase-coupled, Biomol Green absorbance at 620 nm; read-out: ACSS2 Biochemical IC50
From the text: ACSS2 Cell-Free Activity Assay (Cell-Free IC50)

Sequence of human ACSS2 protein (Q9NR19 whole entry): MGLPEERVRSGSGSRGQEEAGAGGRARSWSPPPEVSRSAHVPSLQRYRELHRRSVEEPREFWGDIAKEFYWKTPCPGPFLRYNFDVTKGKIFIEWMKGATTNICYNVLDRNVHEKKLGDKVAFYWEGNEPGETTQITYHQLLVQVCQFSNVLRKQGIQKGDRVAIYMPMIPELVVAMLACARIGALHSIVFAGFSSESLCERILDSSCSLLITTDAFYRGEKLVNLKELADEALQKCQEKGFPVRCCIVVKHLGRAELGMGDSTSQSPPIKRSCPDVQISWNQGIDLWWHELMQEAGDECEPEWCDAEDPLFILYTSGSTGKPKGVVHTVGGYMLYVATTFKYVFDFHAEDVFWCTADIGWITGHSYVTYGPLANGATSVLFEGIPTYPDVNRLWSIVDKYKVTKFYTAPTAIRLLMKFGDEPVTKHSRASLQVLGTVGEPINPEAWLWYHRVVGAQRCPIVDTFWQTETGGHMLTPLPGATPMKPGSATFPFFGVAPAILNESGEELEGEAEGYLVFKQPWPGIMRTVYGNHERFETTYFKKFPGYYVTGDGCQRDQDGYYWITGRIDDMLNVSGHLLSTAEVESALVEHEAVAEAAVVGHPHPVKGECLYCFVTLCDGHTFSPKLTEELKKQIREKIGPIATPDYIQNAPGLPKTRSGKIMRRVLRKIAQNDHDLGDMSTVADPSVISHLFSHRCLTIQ

Compound | IC50 [nM]
CCC(F)(F)c1cccc(NC(=O)c2nc(-c3ccc(OC(F)F)cc3)oc2C)c1 [Compound 112, 2-(4-(difluoromethoxy)phenyl)-N-(3-(1,1-difluoropropyl)phenyl)-5-methyloxazole-4-carboxamide] | 1 to 100
Cc1nn(-c2ccc(OC(F)F)c(-c3cocn3)c2)cc1C(=O)Nc1cccc(C(C)(F)F)c1 [Compound 149, N-(3-(1,1-difluoroethyl)phenyl)-1-(4-(difluoromethoxy)-3-(oxazol-4-yl)phenyl)-3-methyl-1H-pyrazole-4-carboxamide] | > 100
CCC(F)(F)c1cccc(NC(=O)c2oc(-c3ccc(OC)cc3)nc2C)c1 [Compound 136, N-(3-(1,1-difluoropropyl)phenyl)-2-(4-methoxyphenyl)-4-methyloxazole-5-carboxamide] | 1 to 100
CC1=NN(c2ccc(OC(F)F)cc2)C(=O)C1(C)C(=O)Nc1cc(F)cc(Cl)c1 (stereo not drawn) [Compound 166, N-(3-chloro-5-fluoro-phenyl)-1-[4-(difluoromethoxy)phenyl]-3,4-dimethyl-5-oxo-pyrazole-4-carboxamide] | > 100
CC1=NN(c2ccc(OC(F)F)cc2)C(=O)C1(C)NC(=O)c1cccc(C(C)(F)F)c1 (stereo not drawn) [Compound 198, 3-(1,1-difluoroethyl)-N-(1-(4-(difluoromethoxy)phenyl)-3,4-dimethyl-5-oxo-4,5-dihydro-1H-pyrazol-4-yl)benzamide] | > 100
COc1c(C)cc(N2N=C(C)C(C(=O)Nc3cccc(C(C)(F)F)c3)C2=O)cc1-c1ccccc1 (stereo not drawn) [Compound 180, N-[3-(1,1-difluoroethyl)phenyl]-1-(4-methoxy-3-methyl-5-phenyl-phenyl)-3-methyl-5-oxo-4H-pyrazole-4-carboxamide] | 1 to 100
CCc1c(C(=O)Nc2cccc(C(C)(F)F)c2)c(C)nn1-c1ccc(OC(F)F)c(-c2ccccc2)c1 [Compound 151, N-[3-(1,1-difluoroethyl)phenyl]-1-[4-(difluoromethoxy)-3-phenyl-phenyl]-5-ethyl-3-methyl-pyrazole-4-carboxamide] | > 100
CCC(F)(F)c1cccc(NC(=O)c2ncc(-c3ccc(OC(F)F)cc3)nc2C)c1 [Compound 132, 5-(4-(difluoromethoxy)phenyl)-N-(3-(1,1-difluoropropyl)phenyl)-3-methylpyrazine-2-carboxamide] | > 100
Cc1nc(-c2ccc(OC(F)F)c(-c3ccccn3)c2)ncc1C(=O)Nc1cccc(C(C)(F)F)c1 [Compound 120, N-(3-(1,1-difluoroethyl)phenyl)-2-(4-(difluoromethoxy)-3-(pyridin-2-yl)phenyl)-4-methylpyrimidine-5-carboxamide] | > 100
CCC(F)(F)c1cccc(NC(=O)c2cnc(-c3ccc(OC(F)F)c(-c4ccccn4)c3)nc2C)c1 [Compound 119, 2-(4-(difluoromethoxy)-3-(pyridin-2-yl)phenyl)-N-(3-(1,1-difluoropropyl)phenyl)-4-methylpyrimidine-5-carboxamide] | > 100
CCC(F)(F)c1cccc(NC(=O)c2nc(-c3ccc(OC(F)F)c(-c4ccccc4)c3)oc2C)c1 [Compound 123, 2-[4-(difluoromethoxy)-3-phenyl-phenyl]-N-[3-(1,1-difluoropropyl)phenyl]-5-methyl-oxazole-4-carboxamide] | > 100
CCC1(C(=O)Nc2cccc(C(C)(F)F)c2)C(=O)N(c2ccc(OC(F)F)c(-c3ccccc3)c2)N=C1C (stereo not drawn) [Compound 100, N-(3-(1,1-difluoroethyl)phenyl)-1-(6-(difluoromethoxy)-[1,1′-biphenyl]-3-yl)-4-ethyl-3-methyl-5-oxo-4,5-dihydro-1H-pyrazole-4-carboxamide] | > 100
CCC(F)(F)c1cccc(NC(=O)c2c(C)oc(-c3ccc(OC)cc3)[n+]2[O-])c1 [Compound 250, 4-((3-(1,1-difluoropropyl)phenyl)carbamoyl)-2-(4-methoxyphenyl)-5-methyloxazole 3-oxide] | > 100
Cc1nc(-c2ccc(OC(F)F)c(-c3ccccc3)c2)c(C)nc1C(=O)Nc1cccc(C(C)(F)F)c1 [Compound 104, N-(3-(1,1-difluoroethyl)phenyl)-5-(6-(difluoromethoxy)-[1,1′-biphenyl]-3-yl)-3,6-dimethylpyrazine-2-carboxamide] | > 100
CC1=NN(c2ccc(OC(F)(F)F)cc2)C(=O)C1(F)C(=O)Nc1cccc(C(C)(F)F)c1 (stereo not drawn) [Compound 203, N-(3-(1,1-difluoroethyl)phenyl)-4-fluoro-3-methyl-5-oxo-1-(4-(trifluoromethoxy)phenyl)-4,5-dihydro-1H-pyrazole-4-carboxamide] | > 100
CCC(F)(F)c1cccc(NC(=O)c2oc(-c3ccc(OC(F)F)c(-c4ccccn4)c3)nc2C)c1 [Compound 214, 2-(4-(difluoromethoxy)-3-(pyridin-2-yl)phenyl)-N-(3-(1,1-difluoropropyl)phenyl)-4-methyloxazole-5-carboxamide] | > 100
COc1ccc(-c2nc(C)c(C(=O)Nc3cccc(C(C)(F)F)c3)o2)cc1 [Compound 142, N-(3-(1,1-difluoroethyl)phenyl)-2-(4-methoxyphenyl)-4-methyloxazole-5-carboxamide] | > 100

Compound | IC50 [nM]
Cc1c(C(=O)Nc2cccc(C(C)(F)F)c2)c(=O)n(-c2ccc3cc[nH]c3c2)n1Cc1ccccc1 [Compound 108, 1-benzyl-N-[3-(1,1-difluoroethyl)phenyl]-2-(1H-indol-6-yl)-5-methyl-3-oxo-pyrazole-4-carboxamide] | > 100
Cc1nn(-c2ccc(OC(F)F)c(-c3ccccn3)c2)c(C)c1C(=O)Nc1cccc(C(C)(F)F)c1 [Compound 177, N-(3-(1,1-difluoroethyl)phenyl)-1-(4-(difluoromethoxy)-3-(pyridin-2-yl)phenyl)-3,5-dimethyl-1H-pyrazole-4-carboxamide] | 1 to 100
CC1=NN(c2ccc(OC(F)F)c(-c3cccnc3)c2)C(=O)C1(F)C(=O)Nc1cccc(C(C)(F)F)c1 (stereo not drawn) [Compound 206, N-(3-(1,1-difluoroethyl)phenyl)-1-(4-(difluoromethoxy)-3-(pyridin-3-yl)phenyl)-4-fluoro-3-methyl-5-oxo-4,5-dihydro-1H-pyrazole-4-carboxamide] | < 1
N-(3-(1,1-difluoroethyl)phenyl)-2-(6-(difluoromethoxy)-[1,1′-biphenyl]-3-yl)-4-methyloxazole-5-carboxamide [Compound 115] | > 100
Cc1nn(-c2ccc(OC(F)F)c(-c3ccccn3)c2)cc1C(=O)Nc1cccc(C(C)(F)F)c1 [Compound 175, N-[3-(1,1-difluoroethyl)phenyl]-1-[4-(difluoromethoxy)-3-(2-pyridyl)phenyl]-3-methyl-pyrazole-4-carboxamide] | 1 to 100
Cc1ncc(-c2ccc(OC(F)F)c(-c3ccccc3)c2)nc1C(=O)Nc1cccc(C(C)(F)F)c1 [Compound 118, N-[3-(1,1-difluoroethyl)phenyl]-6-[4-(difluoromethoxy)-3-phenyl-phenyl]-3-methyl-pyrazine-2-carboxamide] | > 100
Cc1nn(-c2ccc(OC(F)F)c(-c3cccnc3)c2)c(OC(=O)N2CCC(N3CCCCC3)CC2)c1C(=O)Nc1cccc(C(C)(F)F)c1 [Compound 190, 4-((3-(1,1-difluoroethyl)phenyl)carbamoyl)-1-(4-(difluoromethoxy)-3-(pyridin-3-yl)phenyl)-3-methyl-1H-pyrazol-5-yl [1,4′-bipiperidine]-1′-carboxylate] | 1 to 100
Cc1nc(-c2ccc(OC(F)F)c(-c3ccccn3)c2)oc1C(=O)Nc1cccc(C(C)(F)F)c1 [Compound 213, N-(3-(1,1-difluoroethyl)phenyl)-2-(4-(difluoromethoxy)-3-(pyridin-2-yl)phenyl)-4-methyloxazole-5-carboxamide] | > 100
CCc1c(C(=O)Nc2cccc(C(C)(F)F)c2)c(C)nn1-c1ccc(OC(F)F)c(-c2ccccn2)c1 [Compound 148, N-[3-(1,1-difluoroethyl)phenyl]-1-[4-(difluoromethoxy)-3-(2-pyridyl)phenyl]-5-ethyl-3-methyl-pyrazole-4-carboxamide] | > 100
Cc1nn(-c2ccc(OC(F)F)c(-c3cccnc3)c2)c(C)c1C(=O)Nc1cccc(C(C)(F)F)c1 [Compound 179, N-(3-(1,1-difluoroethyl)phenyl)-1-(4-(difluoromethoxy)-3-(pyridin-3-yl)phenyl)-3,5-dimethyl-1H-pyrazole-4-carboxamide] | 1 to 100
CCC(F)(F)c1cccc(NC(=O)c2nc(C)c(-c3ccc(OC(F)F)cc3)nc2C)c1 [Compound 105, 5-(4-(difluoromethoxy)phenyl)-N-(3-(1,1-difluoropropyl)phenyl)-3,6-dimethylpyrazine-2-carboxamide] | > 100
CCC(F)(F)c1cccc(NC(=O)c2c(C)nn(-c3ccc(OC)cc3)c2F)c1 [Compound 229, N-(3-(1,1-difluoropropyl)phenyl)-5-fluoro-1-(4-methoxyphenyl)-3-methyl-1H-pyrazole-4-carboxamide] | 1 to 100
CC1=NN(c2ccc(OC(F)F)cc2)C(=O)C1(C)C(=O)Nc1cc(Cl)c(F)c(Cl)c1 (stereo not drawn) [Compound 165, N-(3,5-dichloro-4-fluoro-phenyl)-1-[4-(difluoromethoxy)phenyl]-3,4-dimethyl-5-oxo-pyrazole-4-carboxamide] | > 100
Cc1oc(-c2ccc(OC(F)F)c(-c3ccccc3)c2)nc1C(=O)Nc1cccc(C(C)(F)F)c1 [Compound 124, N-[3-(1,1-difluoroethyl)phenyl]-2-[4-(difluoromethoxy)-3-phenyl-phenyl]-5-methyl-oxazole-4-carboxamide] | > 100
Cc1oc(-c2ccc(OC(F)F)cc2)nc1C(=O)Nc1cccc(C(C)(F)F)c1 [Compound 113, N-(3-(1,1-difluoroethyl)phenyl)-2-(4-(difluoromethoxy)phenyl)-5-methyloxazole-4-carboxamide] | > 100
COc1ccc(-n2nc(C)c(C(=O)Nc3cccc(C(C)(F)F)c3)c2OC(=O)N2CCC(N3CCCCC3)CC2)cc1 [Compound 188, 4-((3-(1,1-difluoroethyl)phenyl)carbamoyl)-1-(4-methoxyphenyl)-3-methyl-1H-pyrazol-5-yl [1,4′-bipiperidine]-1′-carboxylate] | 1 to 100
